Assay results from paper PMC6839174, “Targeting the Formyl Peptide Receptor type 1 to prevent the adhesion of ovarian cancer cells onto mesothelium and subsequent invasion” (Journal of Experimental & Clinical Cancer Research : CR, 2019).
Non-standard residues stand in square brackets, D forms with d. Aib = CC(C)(N)C(=O)O

Columns and labels:
SKOV-3 cells [1] = assay: Adhesion of SKOV-3 cells onto extracellular matrix proteins (24-well plates, cell counting); assay type: cell-based, Human
Protocol: (§1) Adhesion assays were performed using 24 multi-well plates coated with 1% BSA, 5 μg mL vitronectin (Vn), 5 μg mL fibronectin (Fn), 5 μg mL laminin (Lm) or 15 μg mL collagen (Coll) diluted in serum-free medium. Sub-confluent cells were harvested by a mild trypsinization, incubated with 10% FBS / DMEM for 1 h at 37 °C, 5% CO2, acid treated with a buffer containing 50 mM glycin-HC1, 0.1 M NaCl, pH 3 for 4 min at 22 °C, to remove receptor-bound ligands, and counted. Viable cells (2 × 10^5 cells per well) were plated in serum-free medium, in the absence or presence of 2 μg/mL R3 mAb recognizing the DI uPAR domain, 2 μg/mL399 anti-uPAR (American Diagnostica), 2 μg/mL anti-uPAR84-95 (PRIMM), 2 μg/mL anti-α-tubulin (Cell Signaling) Abs or 10 nM RI-3, and allowed to adhere for 2 h at 37 °C, 5% CO2. […] At the end of the assay, adherent cells were removed with 0.05% trypsin, and counted. The number of adherent cells was expressed as a percentage of the basal cell adhesion (CTRL). The experiments were performed at least three times in triplicate.

A2780 cells = assay: Adhesion of A2780 cells onto extracellular matrix proteins; assay type: cell-based, Human; conditions: A2780 cells lacking uPAR and FPR1, 10 nM RI-3; BSA, Vn, Fn, Lm or Coll; three independent experiments
Protocol: as §1, with “The experiments were performed at least three times in triplicate.” left out
Supplementary file 13046_2019_1465_MOESM1_ESM.zip: Additional file 1: Figure S1. […] The number of adherent cells was expressed as a percentage of CTRL. […] Then, A2780 cells suspended in growth medium plus/minus 10 nM RI-3 were seeded onto the mesothelial cell monolayer and invasion of mesothelium by A2780 cells was monitored in real-time as changes in Cell Index due to breaking of the monolayer integrity. […]

primary EOC cells = assay: Adhesion of primary EOC cells onto matrix proteins monitored in real time (xCELLigence); assay type: cell-based, human
Protocol: This assay was performed using E-16-well plates and the xCELLigence Real Time Cell Analysis technology. Bottom wells were coated with serum-free medium, 5 μg mL Vn, 5 μg mL Fn, 5 μg mL Lm or 15 μg mL Coll diluted in serum-free medium prior to seeding cells (1 × 10^4 cells/well) suspended in serum-free medium. Cells that adhere to the bottom of plates cause impedance changes which are proportional to the number of cells. The impedance value of each well was automatically monitored in real-time for at least 2 h and expressed as a cell index value. The experiments were performed three times in quadruplicate.
Fig. 6 RI-3 prevents EOC cell adhesion and subsequent invasion of mesothelium. a Adhesion of primary EOC cells on E-plates coated with 1% BSA (CTRL), 5 μg mL Vn, 5 μg mL Fn, 5 μg mL Lm or 15 μg mL Coll, with/without 10 nM RI-3, monitored in real time for 5 h by the xCELLigence system. Data represent mean ± SD from a quadruplicate experiment representative of 3 replicates. b-c Adhesion of EOC cells onto Vn in the absence or presence of 10 nM RI-3, monitored in real time for 3 h by the xCELLigence system. […] At the indicated times, cell associated fluorescence was assessed by a fluorescence plate reader. […] Cells invasion was monitored in real-time as changes in Cell Index due to breaking of the monolayer integrity (e). […]

SKOV-3 cells [2] = assay: GFP-SKOV-3 cell adhesion onto mesothelium (HPMC monolayer); assay type: cell-based, Human; conditions: means of three independent experiments in triplicate
Protocol: HPMCs (1 × 10^5 cells/well) suspended in growth medium, were seeded in 24-well plates and allowed to adhere for about 20 h until they form a confluent monolayer, prior to seeding GFP-tagged EOC cells suspended in growth medium plus diluents or 10 nM RI-3. At the indicated times, plates were accurately washed with PBS and cell-associated fluorescence was assessed by a fluorescence plate reader a fluorescence plate reader (Victor 3, Perkin Elmer), using 485 nm excitation and 535 nm emission filters. The experiments were performed three times in triplicate.

[3] = tested on: SKOV-3 and primary EOC cells; assay: Cell adhesion to vitronectin, SKOV-3 and primary EOC cells (summary statement); assay type: cell-based, human; conditions: pre-exposure
Protocol: as §1
This assay was performed using E-16-well plates and the xCELLigence Real Time Cell Analysis technology. […] The impedance value of each well was automatically monitored in real-time for at least 2 h and expressed as a cell index value. […]

[4] = ref [36]; cited from earlier work
Text: On the other hand, despite a variety of natural and synthetic compounds that interfere with FPR1-dependent pathways antagonizing FPR1functions have been described, the majority had off-target effects, discouraging their clinical development.

For “Ac-[dY][dR][Aib][dR]-NH2 [RI-3, retro-inverso peptide, uPAR/FPR1 antagonist]”, the “basal cell adhesion and adhesion to Coll-, Fn- and Lm-coated plates” value (SKOV-3 cells [1]; SKOV-3, 10 nM RI-3, 2 h, BSA (basal), collagen, fibronectin, laminin, three independent experiments) was “neither affected basal cell adhesion, nor cell adhesion to Coll- Fn- and Lm-coated plates”, the “extent of cell adhesion onto Vn with RI-3” value (SKOV-3 cells [1]; SKOV-3, 10 nM RI-3, Fig. 2d (2 h, cell counting) and Fig. 2e (real time 2 h)) was “dramatically reduced the extent of cell adhesion onto Vn” and the A2780 cell adhesion (A2780 cells) was “ineffective”. The “reduction of primary EOC cell adhesion onto Vn” value (primary EOC cells; 10 nM RI-3, 5 μg mL Vn, real time, slopes 10–120 min, quadruplicate representative of 3 replicates) was 55%, the “matrix selectivity of adhesion reduction, primary EOC cells” value (primary EOC cells; 10 nM RI-3, Vn vs Fn, Coll, Lm, real time 5 h) was “exclusively reduced cell adhesion onto Vn” and the “reduction of cell associated fluorescence (SKOV-3 adhesion to mesothelium)” value (from here on “reduction … (SKOV-3 adhesion to mesothelium)”) (SKOV-3 cells [2]; 10 nM RI-3, after 5 min) was 57%. The “reduction … (SKOV-3 adhesion to mesothelium)” value (SKOV-3 cells [2]; 10 nM RI-3, after 10 min) was 47%, the “reduction … (SKOV-3 adhesion to mesothelium)” value (SKOV-3 cells [2]; 10 nM RI-3, after 20 min) was 58% and the “reduction … (SKOV-3 adhesion to mesothelium)” value (SKOV-3 cells [2]; 10 nM RI-3, after 40 min) was 54%. The “extent of cell adhesion to vitronectin (abstract)” value [3] was “decreases to basal level” and the cell proliferation [4] was “does not affect cell proliferation”.
